According to ChEMBL document CHEMBL1145731, “A green fluorescent chemosensor for amino acids provides a versatile high-throughput screening (HTS) assay for proteases” (Bioorg Med Chem Lett, 2003):

assay: Concentration required for obtaining 50% of the fluorescence intensity of copper-free calcein 1, in bovine serum albumin

Compound | EC50
N[C@@H](CO)C(=O)O [SERINE] | 700 µM
NCC(=O)O [GLYCINE] | 500 µM
CSCC[C@H](N)C(=O)O [METHIONINE] | 800 µM
N[C@@H](Cc1c[nH]cn1)C(=O)O [HISTIDINE] | 10 µM
C[C@H](N)C(=O)O [ALANINE] | ~800 µM
N[C@@H](CS)C(=O)O [CYSTEINE] | 20 µM
CC(C)C[C@H](N)C(=O)O [LEUCINE] | 5000 µM
CC(C)[C@H](N)C(=O)O [VALINE] | 1500 µM
O=C(O)CN(CCN(CC(=O)O)CC(=O)O)CC(=O)O [EDETIC ACID] | 10 µM
CC(C)CC(N)C(N)=O (stereo not given) [LEUCINAMIDE] | 12000 µM
